Source: patent US10160766B1, “Benzopyranyl tetracycle compound and pharmaceutical composition having excellent anti-inflammatory effect comprising the same” (Spark Biopharma, Inc., priority 2017, dated 2018)

Key:
Format in all cases: cell-based
[1] = system: NO release in Raw264.7 cells; assay: Griess assay, inhibition of nitric oxide release; conditions: for NO Inhibition rate (%): 100 ng/mL LPS and compounds 24 hours, compared with control group; for inhibitory effect on NO release, in words, compared with Compound 1d: 100 ng/mL LPS, 24 hours
Method: Thus, the Griess assay was used to measure nitric oxide secretion for inflammation inhibition in Raw264.7 cells.
Raw 264.7 macrophage cell was cultured in Dulbecco Modified Eagle Medium (DMEM) with 10% (v/v) fetal bovine serum (FBS) and 1% (v/v) antibiotic-anti mycotic solution.
Cell was maintained in a 100 mm cell culture dish under cell culture conditions (5% CO2 incubator at 37° C. with humidified atmosphere).
Griess assay reagent was generated prior to the assay with the following contents listed below: N-(1-naphthyl) ethylenediamine dihydrochloride, 0.1% (m/v); sulfanilamide, 1% (m/v); phosphoric acid (85%); 5% (v/v) in deionized water.
Raw 264.7 cell was seeded in transparent 96-well plate and maintained for 1 day. Media was aspirated, and each well was washed with serum free DMEM for twice. Each well was refilled with serum-free DMEM.
Then 100 ng/mL LPS and compounds were treated afterward and cultured for 24 hours. After the incubation, the supernatant culture media was transferred to new 96-well plate and mixed with 50 μL of Griess assay reagent.
Media-reagent mixture was incubated at room temperature for several minutes. Absorbance was read at 548 nm. Four wells each were used for the control experiment, LPS and DMSO (without any compounds) treated well, and DMSO-only treated well. Blank values were measured.
Blank values were measured by mixing 50 μL of Griess assay reagent with […] and 1% antibiotic-antimycotic containing DMEM.
As for the compounds in which the double bond of the tetrahydropyridazine ring in Compound 1d is moved or eliminated, the inhibition rate of NO release was measured in the same manner as in Test Example 2.
The inhibition rate of NO release for Compounds 2a to 2o prepared in Example 2 was tested in order to confirm the anti-inflammatory effect for the above compounds.

Raw 264.7 cell = assay: WST (water-soluble tetrazolium) analysis, relative cell viability; conditions: 100 ng/mL LPS and compounds 24 hours
Method: Relative cell viability of Compound 2a to 2o prepared in Examples 2 was measured by WST (water-soluble tetrazolium) analysis.
Raw 264.7 cell was seeded in transparent 96-well plate and maintained for 1 day.
Media was aspirated, and each well was washed with serum free DMEM for twice. Each well was refilled with serum-free DMEM. Then, 100 ng/mL LPS and compounds were treated afterward and cultured for 24 hours. After the incubation, the supernatant culture media was transferred to new 96-well plate.
Immediately after transferring media, cell-seeded wells were refilled with 100 μL of 10% FBS and 1% antibiotic-antimycotic containing DMEM. Then, 10 μL of Ez-cytox WST assay reagent was used to treat each well, following the manufacturer's protocol.
After incubating for 20 min in a 5% CO2 incubator at 37° C. with humidified atmosphere, absorbance was read at 450 nm.
Blank values were obtained from the well only treated with 10% FBS and 1% antibiotic-antimycotic containing DMEM.

[2] = system: TNF-α secretion in Raw264.7 cell; assay: ELISA of secreted TNF-α; conditions: Mus musculus, LPS 100 ng/mL, compounds 10 μM, read-out: TNF-α Inhibition Rate (%)
Method: Thus, in order to additionally confirm the inflammation inhibitory effects of Compounds 2f to 2l, the inhibition rate of TNF-α secretion was quantitatively measured by ELISA.
Cells were treated with each Compound 1d, or 2f to 2l, and LPS for 24 hours, followed by ELISA for TNF-α present in the culture solution.
In order to measure the amount of secreted TNF-α, Raw264.7 cell was seeded in transparent 96-well plate and maintained for 1 day. Media was aspirated after 1 day and replaced to serum-free DMEM with 1% (v/v) antibiotic-antimycotic solution. LPS and compounds were treated in a final concentration of 100 ng/mL and 10 μM.
Standard curve was plotted by the dose-dependent treatment of the control TNF-α protein provided with the ELISA kit. Blank value was measured by adding solutions without TNF-α substrate.
The TNF-α secretion inhibition rate of Compounds 1d, and 2f to 2l was confirmed, when compared with control groups.

SMILES | NO Inhibition rate (%) [1] [%] | inhibitory effect on NO release, in words, compared with Compound 1d [1] | Relative Cell Viability (%) (Raw 264.7 cell) | inhibition at 10 µM [2] [%]
CC1(C)Oc2ccccc2C2C1=CCn1c(=O)n(-c3ccccc3)c(=O)n12 (stereo not shown) [Compound 1a] | 83 |  |  | 
CNc1ccc2c(c1)OC(C)(C)C1=CCn3c(=O)n(-c4ccccc4)c(=O)n3C12 (stereo not shown) [Compound 1b] | 52 |  |  | 
CC1(C)Oc2cc(F)ccc2C2C1=CCn1c(=O)n(-c3ccccc3)c(=O)n12 (stereo not shown) [Compound 1c] | 79 |  |  | 
COc1ccc2c(c1)OC(C)(C)C1=CCn3c(=O)n(-c4ccccc4)c(=O)n3C12 (stereo not shown) [Compound 1e] | 44 |  |  | 
COc1ccc2c(c1)C1C(=CCn3c(=O)n(-c4ccccc4)c(=O)n31)C(C)(C)O2 (stereo not shown) [Compound 1f] | 55 |  |  | 
COc1cc2c(cc1OC)C1C(=CCn3c(=O)n(-c4ccccc4)c(=O)n31)C(C)(C)O2 (stereo not shown) [Compound 1g] | 44 |  |  | 
COc1ccc2c(c1O)OC(C)(C)C1=CCn3c(=O)n(-c4ccccc4)c(=O)n3C12 (stereo not shown) [Compound 1h] | 26 |  |  | 
CCCN1CCC2(CC1)Oc1cc(O)ccc1C1C2=CCn2c(=O)n(-c3ccccc3)c(=O)n21 (stereo not shown) [Compound 1i] | 47 | significantly reduced |  | 
CC(=O)N1CCC2(CC1)Oc1cc(O)ccc1C1C2=CCn2c(=O)n(-c3ccccc3)c(=O)n21 (stereo not shown) [Compound 1j] | 36 | significantly reduced |  | 
Cn1c(=O)n2n(c1=O)C1C(=CC2)C(C)(C)Oc2cc(O)ccc21 (stereo not shown) [Compound 2a] | 45 |  | 114 | 
CC1(C)Oc2cc(O)ccc2C2C1=CCn1c(=O)n(Cc3ccccc3)c(=O)n12 (stereo not shown) [Compound 2b] | 70 |  | 106 | 
CC1(C)Oc2cc(O)ccc2C2C1=CCn1c(=O)n(C3CCCCC3)c(=O)n12 (stereo not shown) [Compound 2c] | 63 |  | 117 | 
CC1(C)Oc2cc(O)ccc2C2C1=CCn1c(=O)n(-c3ccccc3I)c(=O)n12 (stereo not shown) [Compound 2d] |  |  | 109 | 
COc1ccccc1-n1c(=O)n2n(c1=O)C1C(=CC2)C(C)(C)Oc2cc(O)ccc21 (stereo not shown) [Compound 2e] |  |  | 115 | 
COc1cccc(-n2c(=O)n3n(c2=O)C2C(=CC3)C(C)(C)Oc3cc(O)ccc32)c1 (stereo not shown) [Compound 2f] | 96 |  | 118 | 38
COc1ccc(-n2c(=O)n3n(c2=O)C2C(=CC3)C(C)(C)Oc3cc(O)ccc32)cc1 (stereo not shown) [Compound 2g] | 89 |  | 127 | 44
CC1(C)Oc2cc(O)ccc2C2C1=CCn1c(=O)n(-c3ccc(F)cc3)c(=O)n12 (stereo not shown) [Compound 2h] | 87 |  | 109 | 44
Cc1ccc(-n2c(=O)n3n(c2=O)C2C(=CC3)C(C)(C)Oc3cc(O)ccc32)cc1 (stereo not shown) [Compound 2i] | 94 |  | 130 | 45
CC1(C)Oc2cc(O)ccc2C2C1=CCn1c(=O)n(-c3ccc4c(c3)OCO4)c(=O)n12 (stereo not shown) [Compound 2k] | 92 |  | 121 | 46
CC1(C)Oc2cc(O)ccc2C2C1=CCn1c(=O)n(-c3ccc(C(F)(F)F)cc3)c(=O)n12 (stereo not shown) [Compound 2m] | 85 |  | 106 | 
CC1(C)Oc2cc(O)ccc2C2C1=CCn1c(=O)n(-c3ccc(C(C)(C)C)cc3)c(=O)n12 (stereo not shown) [Compound 2n] | 99 |  | 105 | 
CCCCc1ccc(-n2c(=O)n3n(c2=O)C2C(=CC3)C(C)(C)Oc3cc(O)ccc32)cc1 (stereo not shown) [Compound 2o] | 99 |  | 50 | 
